pIC50: −log10 of the molar value.
Tested on: 922993-354-T-J3-PDC complex spheroids, viability, % test/control
Experiment: Anticancer human tumor 922993-354-T-J3-PDC patient-derived endometrial carcinoma cell line growth inhibition [CLK]
Settings: for pIC50: curve of first compound; for viability, T/C: stronger effect = lower value; active = viability on the fitted dose curve at most 10% of control; inactive = the rest
Outline: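 Multi-cell-type spheroids combined patient-derived tumor cells with HUVEC endothelial cells and human mesenchymal stem cells. Paired agents were dosed in half-log steps down from about clinical Cmax, or from 10 microM where Cmax was unknown.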

[1] = second compound 0.0316 µM, first compound 0.00949 µM
[2] = second compound 0.0316 µM, first compound 0.03 µM
[3] = second compound 0.0316 µM, first compound 0.0949 µM
[4] = second compound 0.0316 µM, first compound 0.3 µM
[5] = second compound 0.1 µM, first compound 0.00949 µM
[6] = second compound 0.1 µM, first compound 0.03 µM
[7] = second compound 0.1 µM, first compound 0.0949 µM
[8] = second compound 0.1 µM, first compound 0.3 µM
[9] = second compound 0.316 µM, first compound 0.00949 µM
[10] = second compound 0.316 µM, first compound 0.03 µM
[11] = second compound 0.316 µM, first compound 0.0949 µM
[12] = second compound 0.316 µM, first compound 0.3 µM
[13] = second compound 1 µM, first compound 0.00949 µM
[14] = second compound 1 µM, first compound 0.03 µM
[15] = second compound 1 µM, first compound 0.0949 µM
[16] = second compound 1 µM, first compound 0.3 µM
[17] = second compound 3.16 µM, first compound 0.00949 µM
[18] = second compound 3.16 µM, first compound 0.03 µM
[19] = second compound 3.16 µM, first compound 0.0949 µM
[20] = second compound 3.16 µM, first compound 0.3 µM
[21] = second compound 10 µM, first compound 0.00949 µM
[22] = second compound 10 µM, first compound 0.03 µM
[23] = second compound 10 µM, first compound 0.0949 µM
[24] = second compound 10 µM, first compound 0.3 µM
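Note: spheroids exposed to the agents for 7 days before readout.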

C=CC(=O)Nc1cc(Nc2nccc(-c3cn(C)c4ccccc34)n2)c(OC)cc1N(C)CCN(C)C + CNC(=O)c1ccc(Nc2nc(OC3CCCC3)c3c(-c4ccc5nc(C)oc5c4)c[nH]c3n2)c(OC)c1
inactive: viability, T/C (second compound 0.0316 µM, first compound 0.000949 µM) 106% | viability, T/C (second compound 0.0316 µM, first compound 0.003 µM) 105% | viability, T/C [1] 106% | viability, T/C [2] 102% | viability, T/C [3] 96.9% | viability, T/C [4] 89.2% | viability, T/C (second compound 0.1 µM, first compound 0.000949 µM) 97.5% | viability, T/C (second compound 0.1 µM, first compound 0.003 µM) 107% | viability, T/C [5] 96.4% | viability, T/C [6] 98.3% | viability, T/C [7] 91.2% | viability, T/C [8] 86% | viability, T/C (second compound 0.316 µM, first compound 0.000949 µM) 70.7% | viability, T/C (second compound 0.316 µM, first compound 0.003 µM) 58.9% | viability, T/C [9] 55.5% | viability, T/C [10] 42% | viability, T/C [11] 57.1% | viability, T/C [12] 51.2% | viability, T/C (second compound 1 µM, first compound 0.000949 µM) 37.5% | viability, T/C (second compound 1 µM, first compound 0.003 µM) 34.9% | viability, T/C [13] 41.9% | viability, T/C [14] 42% | viability, T/C [15] 34.6% | viability, T/C [16] 35.5% | viability, T/C (second compound 3.16 µM, first compound 0.000949 µM) 35.8% | viability, T/C (second compound 3.16 µM, first compound 0.003 µM) 33% | viability, T/C [17] 34% | viability, T/C [18] 34.6% | viability, T/C [19] 34% | viability, T/C [20] 29.9% | viability, T/C (second compound 10 µM, first compound 0.000949 µM) 26.8% | viability, T/C (second compound 10 µM, first compound 0.003 µM) 29.7% | viability, T/C [21] 30% | viability, T/C [22] 30.2% | viability, T/C [23] 29% | viability, T/C [24] 32.5%
< 6.52: pIC50 (second compound 0.0316 µM) | pIC50 (second compound 0.1 µM) | pIC50 (second compound 0.316 µM)
> 9.02: pIC50 (second compound 1 µM) | pIC50 (second compound 3.16 µM) | pIC50 (second compound 10 µM)

NC(=O)C(=Cn1cnc(-c2cc(C(F)(F)F)cc(C(F)(F)F)c2)n1)c1cncnc1 + CNC(=O)c1ccc(Nc2nc(OC3CCCC3)c3c(-c4ccc5nc(C)oc5c4)c[nH]c3n2)c(OC)c1
6.69: pIC50 (second compound 0.316 µM)
active: viability, T/C [24] 8.4% | viability, T/C (second compound 10 µM, first compound 0.949 µM) 11.9% | viability, T/C (second compound 10 µM, first compound 3 µM) 3.1%
6.33: pIC50 (second compound 0.1 µM)
6.23: pIC50 (second compound 0.0316 µM)
inactive: viability, T/C [1] 120% | viability, T/C [2] 123% | viability, T/C [3] 98.3% | viability, T/C [4] 57.7% | viability, T/C (second compound 0.0316 µM, first compound 0.949 µM) 50.4% | viability, T/C (second compound 0.0316 µM, first compound 3 µM) 34.6% | viability, T/C [5] 107% | viability, T/C [6] 120% | viability, T/C [7] 102% | viability, T/C [8] 54% | viability, T/C (second compound 0.1 µM, first compound 0.949 µM) 49.4% | viability, T/C (second compound 0.1 µM, first compound 3 µM) 36.7% | viability, T/C [9] 81.1% | viability, T/C [10] 99% | viability, T/C [11] 71% | viability, T/C [12] 37.3% | viability, T/C (second compound 0.316 µM, first compound 0.949 µM) 41.7% | viability, T/C (second compound 0.316 µM, first compound 3 µM) 40.2% | viability, T/C [13] 56.8% | viability, T/C [14] 63.2% | viability, T/C [15] 36.2% | viability, T/C [16] 18% | viability, T/C (second compound 1 µM, first compound 0.949 µM) 29% | viability, T/C (second compound 1 µM, first compound 3 µM) 22.2% | viability, T/C [17] 58.8% | viability, T/C [18] 67.8% | viability, T/C [19] 24.5% | viability, T/C [20] 12.4% | viability, T/C (second compound 3.16 µM, first compound 0.949 µM) 18.9% | viability, T/C (second compound 3.16 µM, first compound 3 µM) 6.38% | viability, T/C [21] 46.6% | viability, T/C [22] 65.3% | viability, T/C [23] 20.4%
7.44: pIC50 (second compound 10 µM)
7.35: pIC50 (second compound 3.16 µM)
7.31: pIC50 (second compound 1 µM)

Nc1ccccc1NC(=O)c1ccc(CNC(=O)OCc2cccnc2)cc1 + CNC(=O)c1ccc(Nc2nc(OC3CCCC3)c3c(-c4ccc5nc(C)oc5c4)c[nH]c3n2)c(OC)c1
inactive: viability, T/C (second compound 0.0316 µM, first compound 0.0316 µM) 106% | viability, T/C (second compound 0.0316 µM, first compound 0.1 µM) 99.7% | viability, T/C (second compound 0.0316 µM, first compound 0.316 µM) 93.3% | viability, T/C (second compound 0.0316 µM, first compound 1 µM) 86.6% | viability, T/C (second compound 0.0316 µM, first compound 3.16 µM) 65.1% | viability, T/C (second compound 0.0316 µM, first compound 10 µM) 52.1% | viability, T/C (second compound 0.1 µM, first compound 0.0316 µM) 106% | viability, T/C (second compound 0.1 µM, first compound 0.1 µM) 93.8% | viability, T/C (second compound 0.1 µM, first compound 0.316 µM) 97.7% | viability, T/C (second compound 0.1 µM, first compound 1 µM) 77.4% | viability, T/C (second compound 0.1 µM, first compound 3.16 µM) 58.4% | viability, T/C (second compound 0.1 µM, first compound 10 µM) 44.4% | viability, T/C (second compound 0.316 µM, first compound 0.0316 µM) 59.1% | viability, T/C (second compound 0.316 µM, first compound 0.1 µM) 50% | viability, T/C (second compound 0.316 µM, first compound 0.316 µM) 57.9% | viability, T/C (second compound 0.316 µM, first compound 1 µM) 51.9% | viability, T/C (second compound 0.316 µM, first compound 3.16 µM) 49.3% | viability, T/C (second compound 0.316 µM, first compound 10 µM) 34.4% | viability, T/C (second compound 1 µM, first compound 0.0316 µM) 37.6% | viability, T/C (second compound 1 µM, first compound 0.1 µM) 37% | viability, T/C (second compound 1 µM, first compound 0.316 µM) 31.9% | viability, T/C (second compound 1 µM, first compound 1 µM) 34.4% | viability, T/C (second compound 1 µM, first compound 3.16 µM) 31.9% | viability, T/C (second compound 1 µM, first compound 10 µM) 8.75% | viability, T/C (second compound 3.16 µM, first compound 0.0316 µM) 29% | viability, T/C (second compound 3.16 µM, first compound 0.1 µM) 30.7% | viability, T/C (second compound 3.16 µM, first compound 0.316 µM) 27.9% | viability, T/C (second compound 3.16 µM, first compound 1 µM) 31.5% | viability, T/C (second compound 3.16 µM, first compound 3.16 µM) 24.8% | viability, T/C (second compound 3.16 µM, first compound 10 µM) 6.59% | viability, T/C (second compound 10 µM, first compound 0.0316 µM) 28.8% | viability, T/C (second compound 10 µM, first compound 0.1 µM) 24.2% | viability, T/C (second compound 10 µM, first compound 0.316 µM) 24.8% | viability, T/C (second compound 10 µM, first compound 1 µM) 30.1% | viability, T/C (second compound 10 µM, first compound 3.16 µM) 17.2% | viability, T/C (second compound 10 µM, first compound 10 µM) 5.11%
5.20: pIC50 (second compound 0.1 µM)
< 5.00: pIC50 (second compound 0.0316 µM)
> 7.50: pIC50 (second compound 1 µM) | pIC50 (second compound 3.16 µM) | pIC50 (second compound 10 µM)
5.64: pIC50 (second compound 0.316 µM)

Reference: PubChem BioAssay AID2060606 (Molecular Pharmacology Branch, DTP, NCI, 2025)
